Measured values published in ChEMBL document CHEMBL1201862, “PubChem BioAssay data set” (2004).
Active and inactive are the calls of the source.

Tests used:
[1] = target: DNA dC->dU-editing enzyme APOBEC-3A (Homo sapiens, UniProt P31941); experiment: Dose Response confirmation of small molecule APOBEC3A DNA Deaminase Inhibitors via a fluorescence-based single-stranded DNA deaminase assay. [Related pubchem assays (depositor defined):AID493011, AID493024]; format: functional
[2] = target: DNA dC->dU-editing enzyme APOBEC-3G (Homo sapiens, UniProt Q9HC16); format: functional;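 note: Dose-response counterscreen measuring inhibition of APOBEC3G DNA deaminase activity, run while confirming APOBEC3A inhibitors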
[3] = target: T1, Eukaryotic translation initiation factor 4H (Homo sapiens, UniProt Q15056); experiment: human eIF4H binding inhibitors, primary screen, translation initiation inhibitor project, biochemical, uHTS, fluorescence polarization (AID 2012)
[4] = target: T2, Polyadenylate-binding protein 1 (Homo sapiens, UniProt P11940); experiment: PABP poly(A) RNA binding inhibitors, primary screen, biochemical, fluorescence polarization, uHTS (AID 2014)
[5] = system: HEK293; experiment: cells; settings: Homo sapiens;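 note: cells exposed to compound for 14 hours overnight before viability readout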
[6] = target: T3, Interleukin-8 (Homo sapiens, UniProt P10145); experiment: SAR analysis of Tumor necrosis factor alpha (TNF-alpha) induced IL-8 secretion in MCF-7/NOD1 cells - Set 2. [Related pubchem assays (depositor defined):AID1575, AID2250, AID2260]; format: functional, cell-based
T3 sequence (P10145 whole entry): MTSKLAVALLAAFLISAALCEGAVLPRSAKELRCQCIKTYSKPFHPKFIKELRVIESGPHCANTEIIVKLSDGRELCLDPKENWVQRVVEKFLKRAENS

[7] = target: T3, Interleukin-8; experiment: SAR analysis of GM-Tri-DAP induced IL-8 secretion in MCF-7/NOD1 cells - Set 2. [Related pubchem assays (depositor defined):AID1575, AID1578, AID2333]; format: functional, cell-based
[8] = target: T4, Nucleotide-binding oligomerization domain-containing protein 1 (Homo sapiens, UniProt Q9Y239); experiment: NOD1 signaling inhibitors, SAR follow-up, revised (AID 2333); format: functional
T4 sequence (Q9Y239 whole entry): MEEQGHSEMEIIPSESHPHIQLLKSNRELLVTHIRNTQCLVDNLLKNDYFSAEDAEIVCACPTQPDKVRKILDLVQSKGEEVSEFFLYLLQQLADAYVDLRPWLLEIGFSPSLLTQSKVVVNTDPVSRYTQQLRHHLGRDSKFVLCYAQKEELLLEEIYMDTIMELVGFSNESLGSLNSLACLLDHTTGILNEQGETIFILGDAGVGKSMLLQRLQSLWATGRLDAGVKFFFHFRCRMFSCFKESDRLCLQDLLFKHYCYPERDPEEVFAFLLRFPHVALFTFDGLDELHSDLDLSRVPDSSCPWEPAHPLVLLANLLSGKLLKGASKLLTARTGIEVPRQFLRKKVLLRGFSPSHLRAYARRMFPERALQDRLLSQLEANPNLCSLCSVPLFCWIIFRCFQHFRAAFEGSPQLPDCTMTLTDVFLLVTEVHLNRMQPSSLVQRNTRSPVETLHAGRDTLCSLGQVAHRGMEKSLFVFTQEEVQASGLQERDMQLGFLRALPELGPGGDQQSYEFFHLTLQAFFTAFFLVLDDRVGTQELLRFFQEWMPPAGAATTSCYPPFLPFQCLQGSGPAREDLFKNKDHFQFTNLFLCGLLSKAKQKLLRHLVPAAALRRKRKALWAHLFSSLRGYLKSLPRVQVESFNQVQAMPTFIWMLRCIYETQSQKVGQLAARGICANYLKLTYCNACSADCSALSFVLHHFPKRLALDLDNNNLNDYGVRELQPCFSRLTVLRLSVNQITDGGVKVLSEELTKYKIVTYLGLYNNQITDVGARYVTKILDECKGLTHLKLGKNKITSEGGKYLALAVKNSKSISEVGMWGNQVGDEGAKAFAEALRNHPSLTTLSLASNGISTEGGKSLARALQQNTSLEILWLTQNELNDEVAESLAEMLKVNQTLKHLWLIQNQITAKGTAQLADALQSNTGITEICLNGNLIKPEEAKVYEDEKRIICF

[9] = target: Tumor necrosis factor (Homo sapiens, UniProt P01375); experiment: TNFa-triggered NF-kB activation inhibitors, SAR follow-up, cell-based, revised (AID 2337); format: functional
[10] = target: Nucleotide-binding oligomerization domain-containing protein 2 (Homo sapiens, UniProt Q9HC29); experiment: PubChem AID 2334; format: functional
[11] = target: T2, Polyadenylate-binding protein 1; experiment: PABP inhibition in translation initiation, SAR follow-up (AID 435018); format: functional
[12] = target: T1, Eukaryotic translation initiation factor 4H; experiment: eIF4H inhibition in translation initiation, SAR follow-up (AID 435011); format: functional
[13] = StAR promoter reporter inhibition counter-screen, dose response, counter-screen for LRH-1 inverse agonist project, cell-based, luminescence, luciferase reporter (AID 651969); format: functional
[14] = target: Nuclear receptor subfamily 5 group A member 2 (Homo sapiens, UniProt O00482); format: functional, cell-based;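 note: HEK293T cells transfected with LRH-1 and a StAR promoter luciferase reporter; potency for inhibitors that lower LRH-1 driven reporter light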
[15] = target: Steroidogenic factor 1 (Homo sapiens, UniProt Q13285); experiment: Counterscreen for inverse agonists of the liver receptor homolog-1 (LRH-1; NR5A2): Luminescence-based cell-based high throughput dose response assay to identify inverse agonists of the Steroidogenic Factor 1 Nuclear Receptor (SF1; NR5A1).; format: functional
[16] = target: T5, Intestinal-type alkaline phosphatase (Homo sapiens, UniProt P09923); experiment: Dose Response confirmation of uHTS hits from a small molecule inhibitors of human intestinal alkaline phosphatase via a luminescent assay. [Related pubchem assays (depositor defined):AID2544, AID2574]; format: functional
[17] = target: T5, Intestinal-type alkaline phosphatase; experiment: human intestinal alkaline phosphatase activators, dose response, biochemical, luminescence, uHTS hits (AID 463120); format: functional
[18] = target: Dual specificity protein phosphatase 3 (Homo sapiens, UniProt P51452); experiment: VHR1 inhibitor Ki determination, SAR follow-up, biochemical, colorimetric (AID 2004)
[19] = target: NACHT, LRR and PYD domains-containing protein 3 (Homo sapiens, UniProt Q96P20); experiment: NALP3 inhibitors in yeast, dose response, luminescent (AID 488799); format: functional
[20] = target: Glucose-6-phosphate 1-dehydrogenase (Homo sapiens, UniProt P11413); experiment: human G6PD enzyme inhibitors, dose response, selectivity assay for P. falciparum G6PD inhibitor project, biochemical, fluorescence (AID 504792); format: functional
[21] = A Cell Based Secondary Assay To Explore Cytotoxicity of Compounds that Sensitize Mycobacterium Tuberculosis to Beta-Lactam Antibiotics.; format: functional
[22] = inhibitors of firefly luciferase expression or activity, dose response, H4 neuroglioma cells, luminescence (AID 1990); format: functional, cell-based
[23] = cells; format: functional, cell-based
[24] = system: BJ; experiment: cells; format: functional, cell-based; settings: Homo sapiens
[25] = inhibitors of SNCA 5'UTR-driven reporter translation, confirmation, H4 neuroglioma cells, luminescence (AID 1988); format: functional, cell-based
[26] = cytotoxicity in HEK-293T cells, dose response, cytotoxicity control for TCR NF-kB inhibitor project, luminescence, T-cell screen hits (AID 489026); format: functional, cell-based;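 note: cells exposed to compound about 14 hours before the viability readout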
[27] = Luminescence-based dose response cell-based high throughput screening assay for cytotoxic compounds using the IEC-6 intestinal epithelial cell line. [Related pubchem assays: 1858 (Summary AID.), 1825 (Counterscreen.), 1907 (Confirmation screen.)]; format: functional
[28] = luciferase reporter signal reduction – luminescence, H4-C neuroglioblastoma cells, dose response (AID 2458); format: functional, cell-based;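 note: H4 neuroglioblastoma cells stably carrying a luciferase reporter gene fusion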
[29] = inhibitors of SNCA 5'UTR-driven translation, confirmation, luminescence, H4 neuroglioblastoma cells, dose confirmation (AID 2454); format: functional, cell-based;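 note: H4 neuroglioblastoma cells carrying an alpha-synuclein 5'UTR luciferase reporter; potency for inhibition of the luciferase signal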
[30] = Luminescence Cell-Based Dose Response HTS to Identify Inhibitors of 5'UTR Stem-Loop Driven Prion Protein mRNA Translation in H4 Neuroglioblastoma Cells. [Related pubchem assays: 1827 (Project Summary), 1813 (Primary HTS)]; format: functional
[31] = blockers of SFLLRN-triggered platelet ATP secretion – cell-based, human platelets, luminescence, dry powder, dose response (AID 493100); format: functional
[32] = target: T6, Rac GTPase-activating protein 1 (Homo sapiens, UniProt Q9H0H5); experiment: MgcRacGAP GTPase-activating activity inhibitors, confirmation, biochemical, ADP Hunter fluorescence, primary and confirmatory (AID 624330); format: functional
T6 sequence (Q9H0H5 whole entry): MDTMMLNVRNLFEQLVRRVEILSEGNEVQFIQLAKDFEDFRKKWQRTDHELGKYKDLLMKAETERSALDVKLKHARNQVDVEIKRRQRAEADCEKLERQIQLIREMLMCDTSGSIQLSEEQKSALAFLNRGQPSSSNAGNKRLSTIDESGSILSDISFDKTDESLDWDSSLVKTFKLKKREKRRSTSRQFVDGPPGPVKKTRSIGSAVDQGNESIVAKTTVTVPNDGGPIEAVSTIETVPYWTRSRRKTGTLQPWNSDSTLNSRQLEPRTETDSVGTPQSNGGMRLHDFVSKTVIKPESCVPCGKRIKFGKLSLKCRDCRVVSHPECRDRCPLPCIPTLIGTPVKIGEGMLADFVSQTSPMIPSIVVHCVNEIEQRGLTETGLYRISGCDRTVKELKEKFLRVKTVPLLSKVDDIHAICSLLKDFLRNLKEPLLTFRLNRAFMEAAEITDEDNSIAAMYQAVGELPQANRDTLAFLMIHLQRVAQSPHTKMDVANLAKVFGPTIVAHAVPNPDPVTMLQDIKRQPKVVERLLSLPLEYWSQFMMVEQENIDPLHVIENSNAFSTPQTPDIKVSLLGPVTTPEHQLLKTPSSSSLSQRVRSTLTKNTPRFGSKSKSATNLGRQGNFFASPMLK

[33] = target: Cyclin-dependent kinase 5/CDK5 activator 1 (Homo sapiens, UniProt Q00535); experiment: CDK5/p35 kinase inhibitors, dose response, biochemical, cherry-picked samples, set 2 (AID 504545)
[34] = target: Cystic fibrosis transmembrane conductance regulator/Golgi-associated PDZ and coiled-coil motif-containing protein (Homo sapiens, UniProt P13569+Q9HD26); experiment: CAL PDZ peptide-binding inhibitors, dose response, biochemical, fluorescence polarization, Cerulean-tagged CAL PDZ, cherry-picks (AID 504773)
[35] = system: BJ; experiment: cytotoxicity toward Ras-transformed BJeLR fibroblasts, dose response, cell-based, alamar blue fluorescence, cherrypicked samples (AID 2631); format: functional; settings: Homo sapiens;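 note: confirmatory dose-response assay in RAS-dependent BJ fibroblasts engineered with TERT, LT and ST, with cytotoxicity read by fluorescence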
[36] = system: SN12K1; experiment: cells; format: functional; settings: Homo sapiens
[37] = target: T7, Eukaryotic translation initiation factor 2-alpha kinase 3 (Homo sapiens, UniProt Q9NZJ5); experiment: Counterscreen assay for PERK inhibitors: Dose response cell-based high throughput screening assay to measure inhibition of PERK at 6 hours. [Related pubchem assays: 1522, 1416 ]; format: functional
[38] = target: T7, Eukaryotic translation initiation factor 2-alpha kinase 3; experiment: Dose response cell-based high-throughput screening assay to measure PERK inhibition. [Related pubchem assays: 1416 ]; format: functional
[39] = system: P388/ADR; experiment: cells; format: functional; settings: Mus musculus
[40] = system: P388; experiment: cells; format: functional; settings: Mus musculus

T5 sequence (P09923 whole entry): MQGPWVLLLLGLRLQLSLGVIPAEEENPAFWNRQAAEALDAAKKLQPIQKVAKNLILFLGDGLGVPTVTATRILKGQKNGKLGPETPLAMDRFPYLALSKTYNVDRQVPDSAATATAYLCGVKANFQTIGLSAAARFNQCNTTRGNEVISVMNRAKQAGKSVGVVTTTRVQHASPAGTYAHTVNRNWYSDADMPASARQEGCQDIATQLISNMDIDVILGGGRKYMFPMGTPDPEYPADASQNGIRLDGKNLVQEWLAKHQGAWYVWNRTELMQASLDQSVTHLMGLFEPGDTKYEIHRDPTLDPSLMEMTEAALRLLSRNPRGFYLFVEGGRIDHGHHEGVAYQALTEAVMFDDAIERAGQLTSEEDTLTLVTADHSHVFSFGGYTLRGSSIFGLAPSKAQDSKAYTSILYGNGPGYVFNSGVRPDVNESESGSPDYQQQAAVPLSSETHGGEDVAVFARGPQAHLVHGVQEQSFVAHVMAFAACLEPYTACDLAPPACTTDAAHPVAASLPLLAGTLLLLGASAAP
T7 sequence (Q9NZJ5 whole entry): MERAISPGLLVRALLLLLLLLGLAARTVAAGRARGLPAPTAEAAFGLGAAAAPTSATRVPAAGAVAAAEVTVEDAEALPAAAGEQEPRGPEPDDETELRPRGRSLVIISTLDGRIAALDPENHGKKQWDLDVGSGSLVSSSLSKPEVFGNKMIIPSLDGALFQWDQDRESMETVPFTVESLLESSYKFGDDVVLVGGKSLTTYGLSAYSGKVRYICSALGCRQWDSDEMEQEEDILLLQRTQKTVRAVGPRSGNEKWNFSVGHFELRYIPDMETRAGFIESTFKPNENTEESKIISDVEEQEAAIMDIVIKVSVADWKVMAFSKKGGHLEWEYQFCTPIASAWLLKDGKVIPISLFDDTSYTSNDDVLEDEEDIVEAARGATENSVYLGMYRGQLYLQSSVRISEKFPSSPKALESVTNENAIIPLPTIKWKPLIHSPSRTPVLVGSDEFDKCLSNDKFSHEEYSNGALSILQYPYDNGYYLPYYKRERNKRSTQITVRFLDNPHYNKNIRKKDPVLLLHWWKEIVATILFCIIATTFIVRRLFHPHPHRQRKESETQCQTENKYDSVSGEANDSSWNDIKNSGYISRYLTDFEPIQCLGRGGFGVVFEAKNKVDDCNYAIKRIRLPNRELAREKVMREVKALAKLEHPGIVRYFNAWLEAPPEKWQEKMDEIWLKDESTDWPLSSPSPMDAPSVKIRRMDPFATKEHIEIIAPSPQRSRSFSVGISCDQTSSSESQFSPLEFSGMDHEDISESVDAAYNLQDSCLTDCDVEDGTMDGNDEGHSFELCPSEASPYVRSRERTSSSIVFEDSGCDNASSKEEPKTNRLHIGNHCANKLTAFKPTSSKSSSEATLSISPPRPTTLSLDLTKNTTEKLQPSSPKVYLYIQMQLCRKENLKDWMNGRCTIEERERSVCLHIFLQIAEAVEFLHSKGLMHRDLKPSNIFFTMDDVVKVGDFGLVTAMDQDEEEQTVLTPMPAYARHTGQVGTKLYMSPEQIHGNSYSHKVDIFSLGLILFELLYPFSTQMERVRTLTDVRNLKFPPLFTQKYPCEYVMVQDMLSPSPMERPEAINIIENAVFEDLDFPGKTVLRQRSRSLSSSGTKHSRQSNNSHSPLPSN
T2 sequence (P11940 whole entry): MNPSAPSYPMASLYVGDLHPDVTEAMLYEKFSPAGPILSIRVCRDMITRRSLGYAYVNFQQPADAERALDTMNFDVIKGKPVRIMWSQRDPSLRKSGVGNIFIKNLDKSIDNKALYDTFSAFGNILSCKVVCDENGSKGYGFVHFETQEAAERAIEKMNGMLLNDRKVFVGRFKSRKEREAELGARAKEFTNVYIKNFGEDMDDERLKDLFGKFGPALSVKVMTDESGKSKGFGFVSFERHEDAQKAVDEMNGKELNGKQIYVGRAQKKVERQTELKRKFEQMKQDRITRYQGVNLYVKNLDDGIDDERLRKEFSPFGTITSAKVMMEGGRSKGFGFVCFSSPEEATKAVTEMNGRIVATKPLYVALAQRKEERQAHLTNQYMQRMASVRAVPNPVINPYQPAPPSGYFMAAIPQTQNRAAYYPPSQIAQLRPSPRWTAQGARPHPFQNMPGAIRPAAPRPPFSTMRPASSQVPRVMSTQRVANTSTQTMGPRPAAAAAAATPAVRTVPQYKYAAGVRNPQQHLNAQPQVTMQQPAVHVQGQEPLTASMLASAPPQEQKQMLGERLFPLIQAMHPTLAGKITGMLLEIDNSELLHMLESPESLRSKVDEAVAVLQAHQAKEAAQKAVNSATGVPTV
Chain of Cyclin-dependent kinase 5/CDK5 activator 1 (Q00535 whole entry): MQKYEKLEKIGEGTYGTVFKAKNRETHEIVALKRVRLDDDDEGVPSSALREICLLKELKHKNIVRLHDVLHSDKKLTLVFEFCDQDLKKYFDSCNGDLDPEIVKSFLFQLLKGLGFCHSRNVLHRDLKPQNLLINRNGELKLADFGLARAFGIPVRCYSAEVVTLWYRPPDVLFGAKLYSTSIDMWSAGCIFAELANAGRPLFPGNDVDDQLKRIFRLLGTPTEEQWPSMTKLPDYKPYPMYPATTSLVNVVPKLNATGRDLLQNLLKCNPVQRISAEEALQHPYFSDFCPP
Chain of Cyclin-dependent kinase 5/CDK5 activator 1 (Q15078 whole entry, further chain): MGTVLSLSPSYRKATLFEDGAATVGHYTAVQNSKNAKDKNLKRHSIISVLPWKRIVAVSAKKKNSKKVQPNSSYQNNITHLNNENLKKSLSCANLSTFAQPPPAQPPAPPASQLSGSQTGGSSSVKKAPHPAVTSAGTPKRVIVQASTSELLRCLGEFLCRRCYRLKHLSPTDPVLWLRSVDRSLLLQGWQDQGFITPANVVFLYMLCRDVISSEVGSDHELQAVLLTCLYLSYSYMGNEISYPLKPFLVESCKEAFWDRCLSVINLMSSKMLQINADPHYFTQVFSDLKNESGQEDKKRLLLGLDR
Chain of Tumor necrosis factor (P01375 whole entry, the tested form may be a part): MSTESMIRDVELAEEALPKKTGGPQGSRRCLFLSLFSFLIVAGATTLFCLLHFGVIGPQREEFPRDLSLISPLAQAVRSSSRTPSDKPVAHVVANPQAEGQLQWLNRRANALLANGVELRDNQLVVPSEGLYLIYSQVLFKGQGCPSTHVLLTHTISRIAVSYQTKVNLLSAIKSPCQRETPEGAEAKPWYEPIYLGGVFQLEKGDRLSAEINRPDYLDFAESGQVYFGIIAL
Chain of DNA dC->dU-editing enzyme APOBEC-3G (Q9HC16 whole entry): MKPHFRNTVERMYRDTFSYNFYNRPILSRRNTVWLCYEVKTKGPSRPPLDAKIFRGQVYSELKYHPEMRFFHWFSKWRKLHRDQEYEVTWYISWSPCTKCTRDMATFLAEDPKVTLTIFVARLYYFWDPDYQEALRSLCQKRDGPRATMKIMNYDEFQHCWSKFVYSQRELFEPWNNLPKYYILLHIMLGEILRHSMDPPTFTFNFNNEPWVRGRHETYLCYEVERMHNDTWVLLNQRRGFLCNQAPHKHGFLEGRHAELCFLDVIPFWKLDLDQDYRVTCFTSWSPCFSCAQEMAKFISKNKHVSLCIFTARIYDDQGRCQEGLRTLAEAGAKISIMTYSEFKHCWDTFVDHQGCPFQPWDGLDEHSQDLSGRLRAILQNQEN
Chain of DNA dC->dU-editing enzyme APOBEC-3A (P31941 whole entry): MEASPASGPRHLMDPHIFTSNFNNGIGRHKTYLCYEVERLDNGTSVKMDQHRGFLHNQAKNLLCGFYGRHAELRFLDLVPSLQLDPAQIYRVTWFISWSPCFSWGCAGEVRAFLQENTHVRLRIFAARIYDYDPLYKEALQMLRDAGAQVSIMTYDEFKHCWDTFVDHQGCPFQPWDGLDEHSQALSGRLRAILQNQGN
Chain of Dual specificity protein phosphatase 3 (P51452 whole entry, the tested form may be a part): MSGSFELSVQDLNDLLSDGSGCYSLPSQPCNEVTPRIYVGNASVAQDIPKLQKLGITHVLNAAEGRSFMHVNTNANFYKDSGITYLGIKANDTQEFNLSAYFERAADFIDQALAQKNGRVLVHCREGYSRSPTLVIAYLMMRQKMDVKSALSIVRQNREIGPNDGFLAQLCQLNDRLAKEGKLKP
Chain of Glucose-6-phosphate 1-dehydrogenase (P11413 whole entry): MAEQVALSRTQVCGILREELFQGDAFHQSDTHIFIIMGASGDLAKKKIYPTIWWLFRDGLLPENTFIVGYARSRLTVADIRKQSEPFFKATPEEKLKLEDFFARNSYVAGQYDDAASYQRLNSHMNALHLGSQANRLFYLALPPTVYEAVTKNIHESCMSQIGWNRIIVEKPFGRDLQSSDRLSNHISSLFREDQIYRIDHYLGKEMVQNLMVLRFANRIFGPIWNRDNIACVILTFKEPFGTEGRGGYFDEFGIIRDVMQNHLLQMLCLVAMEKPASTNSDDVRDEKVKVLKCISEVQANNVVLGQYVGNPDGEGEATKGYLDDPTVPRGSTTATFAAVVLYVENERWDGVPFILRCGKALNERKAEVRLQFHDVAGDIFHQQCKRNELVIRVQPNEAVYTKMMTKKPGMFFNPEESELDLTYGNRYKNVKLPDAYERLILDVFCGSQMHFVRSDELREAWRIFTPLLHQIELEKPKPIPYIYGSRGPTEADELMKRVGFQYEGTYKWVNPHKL

Cn1ccccc1=Nc1cccc[n+]1C
IC50 [1]: 2.8 µM (active) | IC50 [2]: 4.12 µM (active) | IC50 [3]: > 100 µM (inactive) | IC50 [4]: 6.54 µM (active)

COc1ccc(C(=O)Cn2c(N)nc3ccccc32)cc1
IC50 [5]: > 20 µM (inactive) | IC50 [6]: > 25 µM (inactive) | IC50 [7]: > 25 µM (inactive) | IC50 [8]: > 20 µM (inactive) | IC50 [9]: > 20 µM (inactive) | IC50 [10]: > 20 µM (inactive)

CC(=O)Nc1ccc(NC(=O)CSc2ccc(-c3ccco3)nn2)cc1
IC50 [11]: > 100 µM (inactive) | IC50 [12]: 31.1 µM (active) | IC50 [13]: 35.9 µM (inactive) | IC50 [14]: 35.9 µM (inactive) | IC50 [15]: 35.9 µM (inactive)

O=S(=O)(c1ccccc1)N1CCCC1c1cccs1 (configuration not stated)
IC50 [16]: > 100 µM (inactive) | EC50 [17]: > 100 µM (inactive)

CCN(CC)c1ccc(Nc2nc(-c3sc(N)nc3C)cs2)cc1
Ki [18]: 30.2 µM (inactive)

Cc1nc2ccc(Nc3nc4cc(S(=O)(=O)N5CCOCC5)ccc4o3)cc2s1
IC50 [19]: > 100 µM (inactive) | IC50 [20]: > 80 µM (inactive)

O=C(COc1ccccc1)Nc1cccc(-c2nnc(-c3ccccc3)o2)c1
CC50 [21]: > 40 µM (active)

CSc1nc(N(C)NC(=O)c2cccc(C)c2)c2ccccc2n1
EC50 [22]: < 0.1 µM (active) | EC50 [23]: 0.104 µM (active) | EC50 [24]: 0.272 µM (active) | EC50 [25]: < 0.1 µM (active) | IC50 [26]: > 80 µM (inactive) | IC50 [27]: 0.14 µM (active) | EC50 [28]: 0.087 µM (active) | EC50 [29]: 0.073 µM (active) | EC50 [30]: < 0.1 µM (active)

O=C(Nc1cccc(NC(=O)C2CCCC2)c1)c1ccccc1Br
AC50 [31]: 8.81 µM (active)

ON=C1c2ccccc2-c2ccc(O)cc21
IC50 [32]: 23.6 µM (active) | AC50 [33]: 17.6 µM (active)

O=C1CC(c2ccccc2)=C(c2ccccc2)C1
AC50 [34]: 18.7 µM (active)

CC[C@@]1(O)C(=O)OCc2c1cc1n(c2=O)Cc2cc3ccccc3nc2-1 [CAMPTOTHECIN]
EC50 [35]: 0.00767 µM (active) | EC50 [22]: 0.134 µM (active) | GI50 [36]: 0.0245 µM (active) | EC50 [37]: > 55.7 µM (not active) | EC50 [38]: > 55.7 µM (not active) | EC50 [25]: < 0.1 µM (active) | GI50 [39]: 0.0254 µM (active) | GI50 [40]: 0.0267 µM (active)
